Laboratory results taken from US20260132129A1 (Genesis Therapeutics, Inc., priority 2022, published 2026).

Target: T1, PI3Kα H1047R (T47D cells) (Homo sapiens, UniProt P42336, H1047R)
T1 construct: endogenous in cells; host or cells: T47D cells
Assay: PI3Kα cellular assay: pAKT HTRF in T47D cells after EGF stimulation
Format: cell-based
Settings: for IC50: T47D cells (PI3Kα H1047R), pAKT S473 HTRF, EGF stimulation; for T47D pAKT S473 HTRF IC50 (H1047R): T47D (H1047R) selectivity over SKBR3 (WT): selectivity of T47D (H1047R) over SKBR3 (WT) pAKT IC50
Method in brief: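 T47D cells (PIK3CA H1047R) serum-starved 16 h, then treated 1 h at 37 °C with compound (10,000 nM top, 3-fold steps to 0.5 nM). After 10 min stimulation with 20 ng/mL EGF, cells were lysed and pAKT measured by HTRF.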

T1 sequence (P42336 whole entry H1047R): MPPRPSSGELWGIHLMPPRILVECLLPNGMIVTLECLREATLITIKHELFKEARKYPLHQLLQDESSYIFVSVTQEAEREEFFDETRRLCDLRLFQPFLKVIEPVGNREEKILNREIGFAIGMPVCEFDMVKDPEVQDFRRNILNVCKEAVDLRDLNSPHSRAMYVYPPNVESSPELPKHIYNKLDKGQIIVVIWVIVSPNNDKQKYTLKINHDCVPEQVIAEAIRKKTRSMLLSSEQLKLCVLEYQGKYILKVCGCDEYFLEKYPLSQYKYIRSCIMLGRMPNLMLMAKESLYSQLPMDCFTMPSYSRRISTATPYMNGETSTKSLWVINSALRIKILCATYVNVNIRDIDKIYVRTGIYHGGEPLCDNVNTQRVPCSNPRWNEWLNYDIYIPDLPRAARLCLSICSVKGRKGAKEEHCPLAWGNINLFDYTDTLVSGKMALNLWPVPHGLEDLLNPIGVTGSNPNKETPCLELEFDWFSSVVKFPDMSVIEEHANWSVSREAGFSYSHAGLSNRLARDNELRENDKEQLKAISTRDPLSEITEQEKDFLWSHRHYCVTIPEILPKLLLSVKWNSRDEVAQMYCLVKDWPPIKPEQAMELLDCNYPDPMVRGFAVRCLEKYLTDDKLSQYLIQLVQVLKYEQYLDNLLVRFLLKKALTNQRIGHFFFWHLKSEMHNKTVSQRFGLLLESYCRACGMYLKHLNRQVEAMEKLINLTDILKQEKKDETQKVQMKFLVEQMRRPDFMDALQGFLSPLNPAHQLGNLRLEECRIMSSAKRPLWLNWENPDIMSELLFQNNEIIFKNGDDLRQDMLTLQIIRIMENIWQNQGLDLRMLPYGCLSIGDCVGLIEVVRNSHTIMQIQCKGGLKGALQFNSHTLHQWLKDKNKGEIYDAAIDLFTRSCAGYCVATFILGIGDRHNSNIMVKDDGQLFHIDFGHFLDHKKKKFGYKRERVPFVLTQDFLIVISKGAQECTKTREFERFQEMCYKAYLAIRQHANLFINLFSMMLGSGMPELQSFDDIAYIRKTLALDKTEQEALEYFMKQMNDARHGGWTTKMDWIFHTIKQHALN
T1 sequence (P27986 whole entry partner): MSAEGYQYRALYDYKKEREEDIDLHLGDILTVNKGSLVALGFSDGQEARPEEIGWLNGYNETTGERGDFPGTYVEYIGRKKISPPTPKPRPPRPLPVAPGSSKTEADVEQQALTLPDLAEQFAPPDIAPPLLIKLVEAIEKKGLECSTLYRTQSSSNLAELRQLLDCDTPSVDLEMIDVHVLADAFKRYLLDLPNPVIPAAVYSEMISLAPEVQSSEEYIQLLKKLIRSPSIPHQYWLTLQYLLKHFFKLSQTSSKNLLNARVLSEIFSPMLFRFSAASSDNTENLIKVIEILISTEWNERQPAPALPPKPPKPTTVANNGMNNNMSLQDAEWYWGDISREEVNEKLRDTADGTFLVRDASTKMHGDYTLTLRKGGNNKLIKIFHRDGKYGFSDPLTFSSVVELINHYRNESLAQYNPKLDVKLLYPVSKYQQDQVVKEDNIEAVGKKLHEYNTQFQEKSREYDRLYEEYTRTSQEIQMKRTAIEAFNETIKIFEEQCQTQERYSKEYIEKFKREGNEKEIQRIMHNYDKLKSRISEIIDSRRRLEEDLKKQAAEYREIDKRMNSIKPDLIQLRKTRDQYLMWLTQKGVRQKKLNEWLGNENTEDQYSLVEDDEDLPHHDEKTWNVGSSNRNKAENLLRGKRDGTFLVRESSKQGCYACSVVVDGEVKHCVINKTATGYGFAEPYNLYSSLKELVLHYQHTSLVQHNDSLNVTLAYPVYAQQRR

IC50	T47D pAKT S473 HTRF IC50 (H1047R): T47D (H1047R) selectivity over SKBR3 (WT)	Structure (SMILES)
> 2000 nM	C (C denotes ≤5-fold)	Cc1cc([C@H](C)Nc2ccccc2C(=O)O)c2nc(N3CCC(C)(C)CC3)cc(=O)n2c1 [Compound 728]
100 to 500 nM	A (A denotes >20-fold)	Cc1cc(C(C)Nc2ccccc2S(N)(=O)=O)c2nc(N3C[C@@H](C)O[C@@H](C)C3)cc(=O)n2c1 (some centres unmarked) [Compound 729]
> 2000 nM	C (C denotes ≤5-fold)	Cc1cc([C@H](C)Nc2ccccc2S(N)(=O)=O)c2nc(N3C[C@@H](C)O[C@@H](C)C3)cc(=O)n2c1 [Compound 731]
	C (C denotes ≤5-fold)	Cc1cc([C@@H](C)Nc2ccccc2C(=O)O)c2nc(-c3cc4c(N)nn(C)c4cc3C)c(C)c(=O)n2c1 [Compound 732]
	C (C denotes ≤5-fold)	Cc1cc([C@H](C)Nc2ccccc2C(=O)O)c2nc(-c3cc4c(N)nn(C)c4cc3C)c(C)c(=O)n2c1 [Compound 733]
	C (C denotes ≤5-fold)	Cc1cc(C(C)CNc2ccccc2C(=O)O)c2nc(N3CCOCC3)cc(=O)n2c1 (centres unmarked) [Compound 735]
100 to 500 nM	A (A denotes >20-fold)	Cc1cc(C(C)Nc2ccccc2C(=O)O)c2nc(-c3ccc4c(c3)c(C3CC3)nn4C)cc(=O)n2c1 (centres unmarked) [Compound 736]
100 to 500 nM	A (A denotes >20-fold)	Cc1cc([C@@H](C)Nc2ccccc2C(=O)O)c2nc(-c3ccc4c(c3)c(C(F)(F)F)nn4C)cc(=O)n2c1 [Compound 737]
> 2000 nM	C (C denotes ≤5-fold)	Cc1cc([C@H](C)Nc2ccccc2C(=O)O)c2nc(-c3ccc4c(c3)c(C(F)(F)F)nn4C)cc(=O)n2c1 [Compound 738]
	C (C denotes ≤5-fold)	Cc1cc([C@H](C)Nc2ccccc2C(=O)O)c2nc(-c3ccc4c(ccn4CC(N)=O)c3)cc(=O)n2c1 [Compound 741]
	A (A denotes >20-fold)	Cc1cc(C(C)Nc2cccc3[nH]nnc23)c2nc(N3CCOCC3)cc(=O)n2c1 (centres unmarked) [Compound 743]
	B (B denotes 20-fold≥value>5-fold)	Cc1cc([C@@H](C)Nc2cccc3[nH]nnc23)c2nc(N3CCOCC3)cc(=O)n2c1 [Compound 744]
	C (C denotes ≤5-fold)	Cc1cc([C@H](C)Nc2cccc3[nH]nnc23)c2nc(N3CCOCC3)cc(=O)n2c1 [Compound 745]
< 100 nM	A (A denotes >20-fold)	Cc1cc([C@@H](C)Nc2ccccc2C(=O)O)c2nc(-c3ccc4c(c3)c(C3CC3)nn4C)cc(=O)n2c1 [Compound 748]

The remaining lines, values behind:

Structure (SMILES)	IC50	T47D pAKT S473 HTRF IC50 (H1047R): T47D (H1047R) selectivity over SKBR3 (WT)
CC(=O)c1ccc(-c2cc(=O)n3cc(C)cc([C@H](C)Nc4ccccc4C(=O)O)c3n2)cc1 [Compound 661]	> 2000 nM	C (C denotes ≤5-fold)
Cc1cc([C@@H](C)Nc2ccccc2C(=O)O)c2nc(-c3cc(C)c(F)c(C)c3)cc(=O)n2c1 [Compound 662]	100 to 500 nM	A (A denotes >20-fold)
Cc1cc([C@H](C)Nc2ccccc2C(=O)O)c2nc(-c3cc(C)c(F)c(C)c3)cc(=O)n2c1 [Compound 663]	> 2000 nM	C (C denotes ≤5-fold)
Cc1cc(C(C)Nc2ccccc2-c2ccnnc2)c2nc(N3Cc4ccccc4C3)cc(=O)n2c1 (centres unmarked) [Compound 665, 2-(isoindolin-2-yl)-7-methyl-9-(1-((2-(pyridazin-4-yl)phenyl)amino)ethyl)-4H-pyrido[1,2-a]pyrimidin-4-one]	100 to 500 nM	A (A denotes >20-fold)
Cc1cc(C(C)Nc2cccc3c2OCC(=O)N3)c2nc(N3CCOCC3)cc(=O)n2c1 (centres unmarked) [Compound 684]	> 2000 nM	C (C denotes ≤5-fold)
Cc1cc([C@@H](C)Nc2cccc3c2OCC(=O)N3)c2nc(N3CCOCC3)cc(=O)n2c1 [Compound 685]	> 2000 nM	C (C denotes ≤5-fold)
Cc1cc([C@H](C)Nc2cccc3c2OCC(=O)N3)c2nc(N3CCOCC3)cc(=O)n2c1 [Compound 686]	> 2000 nM	C (C denotes ≤5-fold)
Cc1cc([C@H](C)Nc2cccc3c2CCC(=O)N3)c2nc(N3CCOCC3)cc(=O)n2c1 [Compound 688]	> 2000 nM	C (C denotes ≤5-fold)
Cc1cc(C(C)Nc2ccccc2C(=O)O)c2nc(-c3ccc(F)cc3)c(C)c(=O)n2c1 (centres unmarked) [Compound 691, 2-((1-(2-(4-fluorophenyl)-3,7-dimethyl-4-oxo-4H-pyrido[1,2-a]pyrimidin-9-yl)ethyl)amino)benzoic acid]	< 100 nM	A (A denotes >20-fold)
Cc1cc(C(C)Nc2ccccc2C(=O)O)c2nc(-c3ccc4c(c3)c(C)nn4C)cc(=O)n2c1 (centres unmarked) [Compound 695]		A (A denotes >20-fold)
Cc1cc([C@H](C)Nc2ccccc2C(=O)O)c2nc(-c3ccc4c(c3)c(C)nn4C)cc(=O)n2c1 [Compound 697]		C (C denotes ≤5-fold)
Cc1cc(C(C)Nc2ccccc2-c2ccnnc2)c2nc(N3CC(C)OC(C)C3)cc(=O)n2c1 (centres unmarked) [Compound 698]		C (C denotes ≤5-fold)
Cc1cc([C@@H](C)Nc2ccccc2-c2ccnnc2)c2nc(N3CC(C)OC(C)C3)cc(=O)n2c1 (some centres unmarked) [Compound 699]		C (C denotes ≤5-fold)
Cc1cc([C@H](C)Nc2ccccc2-c2ccnnc2)c2nc(N3C[C@@H](C)O[C@@H](C)C3)cc(=O)n2c1 [Compound 700]		A (A denotes >20-fold)
Cc1cc(C(C)Nc2ccccc2C(=O)O)c2nc(-c3ccc4c(c(N)nn4C)c3C)cc(=O)n2c1 (centres unmarked) [Compound 701]	> 2000 nM	C (C denotes ≤5-fold)
Cc1cc([C@@H](C)Nc2ccccc2C(=O)O)c2nc(-c3ccc4c(c(N)nn4C)c3C)cc(=O)n2c1 [Compound 702]	500 to 2000 nM	B (B denotes 20-fold≥value>5-fold)

Structure (SMILES)	IC50	T47D pAKT S473 HTRF IC50 (H1047R): T47D (H1047R) selectivity over SKBR3 (WT)
Cc1cc([C@H](C)Nc2ccccc2C(=O)O)c2nc(-c3ccc4c(c(N)nn4C)c3C)cc(=O)n2c1 [Compound 703]	> 2000 nM	C (C denotes ≤5-fold)
Cc1cc([C@@H](C)Nc2ccccc2C(=O)O)c2nc(-c3cc4c(N)nn(C)c4cc3C)cc(=O)n2c1 [Compound 704]	> 2000 nM	C (C denotes ≤5-fold)
Cc1cc([C@H](C)Nc2ccccc2C(=O)O)c2nc(-c3cc4c(N)nn(C)c4cc3C)cc(=O)n2c1 [Compound 705]	> 2000 nM	C (C denotes ≤5-fold)
Cc1cc(C(C)Nc2ccccc2C(=O)O)c2nc(-c3ccc4c(c(N)nn4C)c3C)c(C)c(=O)n2c1 (centres unmarked) [Compound 706]	500 to 2000 nM	B (B denotes 20-fold≥value>5-fold)
Cc1cc([C@H](C)Nc2ccccc2C(=O)O)c2nc(N3C[C@@H](C)C(F)(F)[C@@H](C)C3)cc(=O)n2c1 [Compound 712, 2-(((S)-1-(2-((3S,5R)-4,4-difluoro-3,5-dimethylpiperidin-1-yl)-7-methyl-4-oxo-4H-pyrido[1,2-a]pyrimidin-9-yl)ethyl)amino)benzoic acid]	> 2000 nM	C (C denotes ≤5-fold)
Cc1cc([C@H](C)Nc2cccc3c2C(=O)NCC3)c2nc(N3CCOCC3)cc(=O)n2c1 [Compound 714]		C (C denotes ≤5-fold)
Cc1cc([C@@H](C)Nc2ccccc2-c2ccnnc2)c2nc(C3Cc4ccccc4C3)cc(=O)n2c1 [Compound 718]		C (C denotes ≤5-fold)
Cc1cc(C(C)Nc2ccccc2C(=O)O)c2nc(-c3ccc4c(c(N)nn4C)c3C)c(C)c(=O)n2c1 (centres unmarked) [Compound 720]	500 to 2000 nM	B (B denotes 20-fold≥value>5-fold)
Cc1cc(C(C)Nc2ccccc2C(=O)O)c2nc(-c3ccc(F)cc3)c(C)c(=O)n2c1 (centres unmarked) [Compound 721]	100 to 500 nM	
CCn1nc(N)c2cc(-c3cc(=O)n4cc(C)cc([C@@H](C)Nc5ccccc5C(=O)O)c4n3)ccc21 [Compound 722]	< 100 nM	A (A denotes >20-fold)
CCn1nc(N)c2c(C)c(-c3cc(=O)n4cc(C)cc([C@H](C)Nc5ccccc5C(=O)O)c4n3)ccc21 [Compound 723]	> 2000 nM	C (C denotes ≤5-fold)
Cc1cc(C(C)Nc2ccccc2C(=O)O)c2nc(-c3ccc4c(c3)c(C(F)(F)F)nn4C)cc(=O)n2c1 (centres unmarked) [Compound 724]	100 to 500 nM	A (A denotes >20-fold)
Cc1cc(C(C)Nc2ccccc2C(=O)O)c2nc(-c3ccc4c(c3)c(C)nn4C)cc(=O)n2c1 (centres unmarked) [Compound 725]	< 100 nM	A (A denotes >20-fold)
Cc1cc(C(C)Nc2ccccc2C(=O)O)c2nc(-c3ccc4c(c3)CCN4CC(N)=O)cc(=O)n2c1 (centres unmarked) [Compound 726]		B (B denotes 20-fold≥value>5-fold)
Cc1cc([C@@H](C)Nc2ccccc2C(=O)O)c2nc(N3CCC(C)(C)CC3)cc(=O)n2c1 [Compound 727]	> 2000 nM	C (C denotes ≤5-fold)
